Test results published in patent US20210078917A1, “FUNGICIDAL FERTILIZER COMPOSITION COMPRISING POTASSIUM PHOSPHITE AND GAMMA-POLY-GLUTAMIC ACID” (JIANGSU HUIFENG BIO AGRICULTURE CO., LTD., priority 2018, published 2021).

Columns and labels:
Disease (rot) = assay: Disease control test of tomato, rot; format: in vivo; conditions: 600 g per mu
Experimental: This fertilizer was applied on the basis of conventional fertilization in each treatment area. Fertilization method: The fertilizer was applied by spraying during the seedling stage of tomato. The yield, quality and control effect on disease on tomato were determined.

root rot of potatoes = assay: Disease control test of potatoes (field), root rot; format: in vivo, potato; conditions: amount 7000 g active ingredient/mu
Experimental: (§1) (1) Yield increase and disease control test of potatoes with fungicidal fertilizer composition of the present invention. This test was conducted in 2017 in Anding District, Dingxi City, Gansu Province. This area is a typical semi-arid rain-fed agricultural area. The soil type is loessial soil, with deep soil layers and uniform soil fertility. The previous crop is rape. The fertilizer of the present invention was totally applied as a base fertilizer at a time. […] Ridging after flat planting in wide and narrow rows was adopted. The wide row spacing was 60 cm, the narrow row spacing was 30 cm, the plant spacing was 30 cm, the sowing depth was 15 cm, and the plant density was 58,000 plants·hm^−2. Other field management was the same as that in large area of field. The number of large- and medium-sized potatoes ([…]) per plant was randomly determined, and the relative increase rate of large- and medium-sized potatoes was determined. The yield per mu and the relative increase rate of yield were determined. The crude starch content and increase rate of crude starch content were determined. The control effect on root rot of potatoes was also determined.

potatoes = assay: Yield increase test of potatoes (field); format: in vivo, potato; conditions: amount 7000 g active ingredient/mu, base fertilizer
Experimental: as §1

peanut = assay: Yield increase and quality test of peanut; format: in vivo; conditions: 800 g per mu, sprayed three times during flowering and fruiting period
Experimental: (§2) […]. Fertilization method: The fertilizer was applied three times by spraying during the flowering and fruiting period. The yield, quality and control effect on disease on peanut were determined.

stem rot of peanut = assay: Disease control test of peanut, stem rot; format: in vivo; conditions: 800 g per mu
Experimental: as §2

tomato = assay: Yield increase and quality test of tomato; format: in vivo; conditions: 600 g per mu, sprayed during the seedling stage
Experimental: […]. This fertilizer was applied on the basis of conventional fertilization in each treatment area. Fertilization method: The fertilizer was applied by spraying during the seedling stage of tomato. The yield, quality and control effect on disease on tomato were determined.

soybean = assay: Yield increase test of soybean; format: in vivo; conditions: 4000 g effective ingredient per mu
Experimental: (§3) Fertilization method: The fertilizer was co-applied with other fertilizers. The yield, quality and control effect on disease on soybean were determined.

Disease (black fruit) = assay: Disease control test of Chinese wolfberry, black fruit; format: in vivo, Chinese wolfberry "Ningqi No. 7"; conditions: 1.2 kg active ingredient per mu
Experimental: The test was carried out in a Chinese wolfberry planting test plot in Koluke Town, Delingha City, Qinghai Province. Chinese wolfberry plants were all three-year-old seedlings of variety “Ningqi No. 7” at a density of 270 plants/667 m^2. This experiment was designed such that different plots were arranged in order. […] Fertilization method: It was applied together with other base fertilizers, by laying the fertilizer at the bottom of the planting pit, where the depth of the trench was 70 cm, the diameter of the pit was 80 cm, and the soil was mixed in and applied at the bottom when applying fertilizer. The yield, quality and control effect on disease on fresh Chinese wolfberry fruit were determined.

[1] = system: root rot, a soil-borne disease of soybeans; assay: Disease control test of soybean, root rot; format: in vivo; conditions: 4000 g effective ingredient per mu
Experimental: as §3

pepper = assay: Yield increase and quality test of pepper; format: in vivo; conditions: 400 g per mu, sprayed during the seedling stage
Experimental: (§4) This fertilizer was applied on the basis of conventional fertilization in each treatment area. Fertilization method: The fertilizer was applied by spraying during the seedling stage of pepper. The yield, quality and control effect on disease on pepper were determined.

Disease (blight) = assay: Disease control test of pepper, blight; format: in vivo; conditions: 400 g per mu
Experimental: as §4

Chinese wolfberry = assay: Yield increase and quality test of Chinese wolfberry; format: in vivo, Chinese wolfberry "Ningqi No. 7"; conditions: 1.2 kg active ingredient per mu
Experimental: The test was carried out in a Chinese wolfberry planting test plot in Koluke Town, Delingha City, Qinghai Province. Chinese wolfberry plants were all three-year-old seedlings of variety “Ningqi No. 7” at a density of 270 plants/667 m^2. This experiment was designed such that different plots were arranged in order. […]. Fertilization method: It was applied together with other base fertilizers, by laying the fertilizer at the bottom of the planting pit, where the depth of the trench was 70 cm, the diameter of the pit was 80 cm, and the soil was mixed in and applied at the bottom when applying fertilizer. The yield, quality and control effect on disease on fresh Chinese wolfberry fruit were determined.

## Potassium phosphite
Disease (rot); 12 days after application
  Disease (rot): Control effect: 62.42%
  Disease (rot): Disease index: 5.95
Disease (rot); 45 days after application
  Disease (rot): Control effect: 34.52%
  Disease (rot): Disease index: 16.16
Root rot of potatoes; 10 days after application
  Control effect: 57.59%
  Disease index of root rot: 11.56
Root rot of potatoes; 30 days after application
  Control effect: 32.47%
  Disease index of root rot: 26.19
potatoes
  Crude starch content: 16.8%
  Fresh weight of large- and medium-sized potatoes: 518.8 g/plant
  Increase rate of crude starch content: 6.3%
  Increase rate of large- and medium-sized potatoes: 14.8%
  Increase rate of yield: 12.4%
  Yield: 1446 kg/mu
peanut
  Quality: Linoleic acid: 44.61%
  Quality: Protein: 23.08%
  Yield: 335.7 kg/mu
  Yield: Seed yield: 70.3%
  Yield: Weight per 100 fruits: 122.3 g
Stem rot of peanut; 10 days after application
  Disease (Stem rot): Control effect: 78.64%
  Disease (Stem rot): Disease index: 3.28
Stem rot of peanut; 30 days after application
  Disease (Stem rot): Control effect: 39.36%
  Disease (Stem rot): Disease index: 9.31
tomato
  Quality: Amino acid: 695.31 mg/100 kg
  Quality: Vitamin C: 15.69 mg/100 g
  Yield: Total yield: 3626 kg/mu
  Yield: Weight of single fruit: 22.6 g
soybean
  Branches: 18.5 count
  Increase rate (branches): 6.8%
  Increase rate (weight per 100 grains): 7.1%
  Increase rate (yield): 11.4%
  Weight per 100 grains: 26.50 g
soybean; per 667 M^2
  Yield (667 M^2): 196.7
Disease (black fruit); 10 days after application
  Disease (black fruit): Control effect: 66.51%
  Disease (black fruit): Disease index: 5.13
Disease (black fruit); 30 days after application
  Disease (black fruit): Control effect: 45.24%
  Disease (black fruit): Disease index: 15.67
[1]; 12 days after application
  Control effect: 75.42%
  Disease index of root rot: 4.73
[1]; 35 days after application
  Control effect: 36.78%
  Disease index of root rot: 19.93
pepper
  Quality: Vitamin C: 24.4 mg/100 g
  Yield: Total yield: 3462 kg/mu
  Yield: Weight of single fruit: 51.8 g
Disease (blight); 10 days after application
  Disease (blight): Control effect: 71.36%
  Disease (blight): Disease index: 3.00
Disease (blight); 42 days after application
  Disease (blight): Control effect: 31.52%
  Disease (blight): Disease index: 12.43
Chinese wolfberry
  Quality: Polysaccharide: 8.63%
  Quality: Total amino acid content: 7.41%
  Yield of fresh Chinese wolfberry fruit: Weight per 100 fruits: 126.8 g
  Yield of fresh Chinese wolfberry fruit: Yield: 2703.5 kg/mu
